# Laboratory results: US20160039852A1, “THERAPEUTIC USES OF BISPHOSPHONATES” (THE UNIVERSITY OF SHEFFIELD, priority 2013, published 2016)
# Like-named read-outs stand apart in the source and are kept apart here.
# Tests used:
# [1] = tested on: human mesenchymal stem cells (hMSC); test: hMSC growth kinetics, cumulative population doublings with time in culture; type: cell-based; conditions: for population doublings after which cultures stopped proliferating: hMSC, from the start of the treatment, PBS cultures senesced after 21-25 PDs, n=3; for hMSC life span / time of proliferation in culture: versus PBS control
# [2] = tested on: human mesenchymal stem cells (hMSC); test: Immunostaining of γH2AX DNA damage foci (double stranded breaks) in hMSC; type: cell-based; conditions: for number of γH2AX DNA damage foci after irradiation: 1Gy irradiation, compound at 1 μM, foci at 4 h (Zol also 12, 24 h) versus PBS; for effect of Zol on DNA damage after addition of prenylation intermediate: 1Gy, Zol plus FOH or GGOH (33 μM)
# Experimental: DNA damage was induced by exposing hMSC to ^137Cs Gamma source. Cells were washed with PBS and fixed with 4% Para-formaldehyde for […]. Cells were then washed with PBS permeabilized with 0.5% Triton-X (Sigma, UK) for […] and blocked with 5% normal goat serum (DAKO, Glostrup, Denmark) in PBS for 1 hr. This was followed by incubation with primary antibody, anti-phospho histone H2AX (Ser139) (Millipore, Massachusetts, USA) used at 1:800 in 5% normal goat serum, overnight at 4° C. Cells were then washed in PBS and incubated in secondary Anti mouse IgG Fluorescein Isothiocyanate (FITC) conjugated (Insight Biotechnology, Santa Cruz, USA) at 1:200 in PBS for 1 hour at room temperature. The cover-slips were mounted on slides with mounting media (VectaShield) containing 4',6-diamidino-2-phenylindole (DAPI) to stain the nuclei. […] Cells were viewed using in an Inverted Zeiss LSM 510 NLO microscope equipped with Argon (Ar) laser (488 nm) 30 mW to image the fluorescent marker FITC and UV lamp to image DAPI stained nuclei. Five to seven fields consisting of 25 cells in total were randomly selected from a tile scan (20×) and individual cells viewed at 63× were then scored for γH2AX DNA damage foci using ImageJ 1.45 software (http://rsbweb.nih.gov/ij/). One of the factors affecting cellular lifespan is accumulation of DNA damage.
# FPP synthase = molecular target: T1, FPP synthase (Homo sapiens, UniProt P14324); test: Prenyl synthase assay (FPP synthase activity); type: biochemical
# T1 sequence (P14324 1-419): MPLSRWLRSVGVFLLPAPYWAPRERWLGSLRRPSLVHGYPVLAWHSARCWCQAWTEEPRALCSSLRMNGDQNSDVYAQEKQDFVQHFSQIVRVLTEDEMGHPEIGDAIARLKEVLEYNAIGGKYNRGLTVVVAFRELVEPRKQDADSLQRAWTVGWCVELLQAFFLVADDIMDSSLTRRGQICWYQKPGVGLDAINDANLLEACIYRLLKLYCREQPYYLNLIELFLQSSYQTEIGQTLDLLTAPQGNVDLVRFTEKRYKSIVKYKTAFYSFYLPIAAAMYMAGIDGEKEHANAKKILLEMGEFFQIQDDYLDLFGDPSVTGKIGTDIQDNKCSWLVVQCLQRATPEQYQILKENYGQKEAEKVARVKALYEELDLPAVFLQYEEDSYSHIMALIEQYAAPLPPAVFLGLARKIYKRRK
# Experimental: FPP synthase activity was measured by the method of Reed and Rilling (Reed, B. C. & Rilling, H. C. (1976) Biochemistry 15, 3739-3745) with modifications. Assays were set up such that the final volume was 100 ul. The assay conditions were 50 mM Tris pH7.7, 2 mM MgCl2, 0.5 mM TCEP, 20 μg/ml BSA. For FPP synthase assays the final enzyme concentration was 10 nM. All substrates were at 10 μM final concentration each substrate, all reactions were with IPP (14C-IPP, 400Kq/μMol American Radiochem. Corp). For FPP synthase GPP was the second substrate. Bisphosphonate was added as 1/10th volume of a 10× stock solution and allowed to preincubate for 10 minutes with the enzyme in a volume of 80 ul and the reaction started by the addition of 20 ul of the combined substrate. The reaction was allowed to proceed for 4 minutes at 37° C. before being terminated by the addition of 0.2 ml of conc. HCI/Methanol (1:4) and incubated for a further 10 mins at 37° C. The reaction mixtures were then extracted with 0.4 ml of immiscible scintillation fluid (Microscint E, Perkin Elmer) to separate reaction products from unused substrate and were counted directly with a microbeta scintillation counter (Perkin Elmer).
# [3] = tested on: zebrafish embryo caudal fin; test: Zebrafish tail amputation and regeneration following irradiation; type: in vivo, Zebrafish (Danio Rerio H); conditions: irradiated embryos, Zol plus FOH or GGOH
# Experimental: Embryos from wild-type Zebrafish (Danio Rerio H) AB strain were collected at 16 cell stage (˜1.5 hours post fertilisation (hpf)) and grown in E3 Medium at 28° C. Embryos were treated with Zoledronate (1 μM) and/or FOH, GGOH at 24 hpf. DNA damage was induced by exposure to ^137Cs Gamma source at 48 hpf and after irradiation the embryo tails were amputated and the embryos were then incubated at 28° C. for a further 12 hrs in the presence of the chemicals. At the end of this period the chemicals were washed off and the embryos were incubated in fresh medium with no chemicals. The embryos were grown up to 120 hpf, following which they were fixed in 4% PFA overnight and then mounted in 100% glycerol. The tail lengths of embryos were measured taking the anal region as starting reference point and the end of the fin fold as the ending point of measurement.
compound,measurement,setting,value
NCCCC(O)(P(=O)(O)O)P(=O)(O)O [Alendronate],population doublings after which cultures stopped proliferating,[1],27-30 PDs
same,hMSC life span / time of proliferation in culture,[1],extend hMSC lifespan
same,number of γH2AX DNA damage foci after irradiation,[2],enhance repair of DNA damage
"O=P(O)(O)C1CC2CCCNC2C1P(=O)(O)O (stereo not shown) [Compound A, 2-Azabicyclo-[4.3.0]nonane-8,9-diphosphonic acid]",number of γH2AX DNA damage foci after irradiation,[2],significant decrease
same,number of γH2AX DNA damage foci after irradiation,[2]; listed as compound A,significant reduction in DNA damage
same,affinity for / inhibitory potency on FPP synthase,FPP synthase,high affinity
same,affinity for / inhibitory potency on FPP synthase,FPP synthase; listed as compound A,high
"O=P(O)(O)C1CC2CCCNC2C1P(=O)(O)O (stereo not shown) [Compound B, 2-Azabicyclo-[4.3.0]nonane-8,9-diphosphonic acid]",number of γH2AX DNA damage foci after irradiation,[2],not
same,affinity for / inhibitory potency on FPP synthase,FPP synthase,low affinity
same,affinity for / inhibitory potency on FPP synthase,FPP synthase; listed as compound B,low
"O=P(O)(O)C(F)(Cc1cnc2ccccn12)P(=O)(O)O [Compound C, 1-fluoro-2-(imidazo-[1,2-a]pyridine-3-yl)-ethyl-bisphosphonic acid]","DNA repair (γH2AX DNA damage foci), concentration dependence","[2]; Compound C at increasing concentrations, 4 hours after irradiation",enhances DNA repair in a dose dependent manner
same,affinity for / inhibitory potency on FPP synthase,FPP synthase,high inhibitory potency
"CC(C)=CCC/C(C)=C/CC/C(C)=C/CO [FOH, Trans, trans farnesol]",effect of Zol on DNA damage after addition of prenylation intermediate,[2],reversed
same,Zol-mediated fin repair process after addition of FOH or GGOH,[3],abrogated
"CC(C)=CCC/C(C)=C/CC/C(C)=C/CC/C(C)=C/CO [GGOH, geranylgeraniol]",effect of Zol on DNA damage after addition of prenylation intermediate,[2],reversed
same,Zol-mediated fin repair process after addition of FOH or GGOH,[3],abrogated
O=P(O)(O)C(O)(Cc1cccnc1)P(=O)(O)O [Risedronate],population doublings after which cultures stopped proliferating,[1],29-34 PDs
same,hMSC life span / time of proliferation in culture,[1],extend hMSC lifespan
same,number of γH2AX DNA damage foci after irradiation,[2],enhance repair of DNA damage
